According to US20190358247A1 (The Medical College of Wisconsin, Inc., priority 2016, published 2019):
Read-outs that look alike come from different tables or passages of the source.

Key:
MiaPaCa-2 cells [1] = test: Intracellular uptake by LC-MS/MS; conditions: MiaPaCa-2, 1 μM, 1 h
Method: Cells were grown on 10 cm dishes and treated with the compounds for 24 h in full media.
Next we investigated the relative uptake of different Mito-Met analogs (Mito-Met2, Mito-Met6, and Mito-Met10) and phenformin in MiaPaCa-2 cells (FIG. 12D). Cells were treated with respective Mito-Met analog (1 μM) for 1 h. Cells were lysed after washing and analyzed for Mito-Met analog by LC-MS.

MiaPaCa-2 cells [2] = test: Clonogenic (colony formation) assay; format: cell-based, human
Method: Clonogenic assay. […] The plates were kept within the incubator and media changed every 3-4 days until the control cells formed sufficiently large clones. The cell survival fractions were calculated as previously described.
MiaPaCa-2 cells were treated with a range of concentrations as shown (FIG. 10C), and the number of colonies formed were counted.

MCF-10A = test: IncuCyte cell confluence assay, nonmalignant breast epithelial cells; format: cell-based
Method: (§1) IncuCyte Analyzer-real time measurement of cell proliferation. The cell proliferation was measured using a label-free, noninvasive cellular confluence assay by IncuCyte Live-Cell Imaging Systems (Essen Bioscience, Ann Arbor, Mich., USA; IncuCyte FLR). This system enables collection of live cell images at 2 h intervals over several days. The IncuCyte Analyzer provides real-time cellular confluence data based on segmentation of high-definition phase-contrast images. The cell proliferation is expressed as an increase in percentage of cell confluence.

MiaPaCa-2 cells [3] = test: Oxygen consumption rate in intact cells, Seahorse XF96; format: cell-based, human
Method: (§2) Respiratory enzyme activity in intact and permeabilized cells. The mitochondrial function in intact and permeabilized pancreatic cancer cells was measured using a Seahorse XF96 Extracellular Flux Analyzer (Seahorse Bioscience, North Billerica, Mass., USA). Unless specified otherwise, assays in intact cells were performed as previously described. Measurement of mitochondrial respiratory complexes in permeabilized cells was performed according to the manufacturer's instructions (Seahorse Bioscience). Briefly, intact cells were permeabilized using 1 nM Plasma Membrane Permeabilizer (PMP, Seahorse Bioscience) immediately before oxygen consumption rate (OCR) measurement by XF96. The oxygen consumption derived from mitochondrial complex I or complex II activity was measured by providing different substrates to mitochondria, e.g., pyruvate/malate for complex I and succinate for complex II activity. Rotenone, malonate and antimycin A were used as specific inhibitors of mitochondrial complex I, II and III activities, respectively.
Effects of Met and Mito-Met analogs on mitochondrial bioenergetics in MiaPaCa-2 cells. The oxygen consumption rate (OCR) and the extracellular acidification rate (ECAR) were measured as a readout of mitochondrial function and glycolysis using a Seahorse Bioscience XF96 extracellular flux analyzer. We compared the immediate OCR changes in response to different concentrations (e.g., IC50 or higher values determined by clonogenic assay) of Met, Mito-Met2, Mito-Met6, Mito-Met10, and phenformin (FIG. 13A).
Next we monitored the mitochondrial OCR changes in MiaPaCa-2 cells after 24 h treatment with Met, Mito-Met analogs, and phenformin followed by a washout of the treatments and return to fresh cell culture media.

mitochondrial complex I = mitochondrial complex I (Homo sapiens, UniProt O75251+O75306+P03886); test: Complex I oxygen consumption (pyruvate/malate) in permeabilized cells, Seahorse XF96; format: cell-based; set-up: IC50, complex I oxygen consumption; other: permeabilized MiaPaCa-2, added acutely; conditions: permeabilized MiaPaCa-2, added acutely
Method: as §2
The oxygen consumption rate was measured using the permeabilized MiaPaCa-2 cells in MAS buffer supplemented with pyruvate. The use of permeabilized cells avoids differences in cellular uptake of compounds. […] We tested the effect of pretreating cells with Mito-Met10 or Met using the permeabilized model. MiaPaCa-2 cells were treated with Met and Mito-Met10 for 24 h and the oxygen consumption studies were performed in these cells after permeabilization.

HaCaT = test: IncuCyte cell confluence assay, keratinocytes; format: cell-based
Method: as §1

[4] = mouse, in vivo
Method: In an initial proof-of-concept experiment, syngeneic KPC cells expressing Firefly luciferase (FC1242-luc) were orthotopically implanted to the pancreas of C57BL/6 mice and tumor growth monitored using bioluminescence imaging (FIG. 15F). Mice orthotopically autografted with FC1242-luc cells were treated daily with 1 mg/kg or 150 mg/kg Met, or 1 mg/kg Mito-Met. […] Serum from these animals was collected, and hepatic and kidney toxicity tested using standard AST, ALT, AP, and BUN assays, respectively.

MiaPaCa-2 cells [5] = test: Radiosensitization, clonogenic survival after X-radiation; format: cell-based, human; conditions: 24 h pretreatment (1 mM Met, 1 μM Mito-Met) before X-radiation
Method: MiaPaCa2 cells (1000 cells/well) were cultured in quadruplicate overnight in 96-well plates and changed to fresh medium.
Radiation experiments. […] The cells were then treated with X-radiation at a dose of 0, 2, 4, and 6 Gy. The control cells were treated with the same concentration of vehicle (0.1% DMSO) where appropriate. After irradiation, cells were suspended and seeded at various densities (100-8,000 cells per well) in 6-well plates for clonogenic assay as described above. The plates were kept within the incubator and media changed every 3-4 days for 2 weeks. Wells with 10-50 sufficiently large clones were chosen for calculating the cell survival fractions.
Effect of Mito-Met and Met on PDAC radiosensitivity. Both control cells and cells were pretreated for 24 h with 1 mM Met or Mito-Met (1 μM) prior to X-radiation. Cell survival was measured by a clonogenic assay.

MiaPaCa-2 cells [6] = test: Sytox Green cytotoxicity assay; format: cell-based; conditions: 100 μM, 24 h
Method: Cytotoxicity assay. To determine the cytotoxicity of Mito-Met analogs and other TPP^+-conjugated to a long chain aliphatic hydrocarbon, we used the Sytox assay as described previously. MiaPaCa-2 cells were treated for 24 h, and dead cells were monitored in the presence of 200 nM Sytox Green (Invitrogen). The Sytox method labels the nuclei of dead cells yielding green fluorescence. Fluorescence intensities from the dead cells in 96-well plate were acquired in real time every 15 min after 4 h using a plate reader (BMG Labtech, Inc.) equipped with an atmosphere controller set at 37° C. and 5% CO2:95% air, using a fluorescence detection with 485 nm (excitation) and 535 nm (emission). To measure the total cell number, all of the samples in each treatment group were permeabilized by adding Triton X 100 (0.065%) in the presence of Sytox Green for 3 h, and maximal fluorescence intensities were taken as 100%. Data are represented as a percentage of dead cells after normalization to total cell number for each group.
Induction of cell death was monitored by Sytox Green staining, as shown previously. MiaPaCa-2 cells were treated with Mito-Met10 (100 μM), Mito-CP (100 μM), or Met (30 mM) and other controls for 24 h and cell death was measured in real time.

Chain of mitochondrial complex I (P03886 whole entry): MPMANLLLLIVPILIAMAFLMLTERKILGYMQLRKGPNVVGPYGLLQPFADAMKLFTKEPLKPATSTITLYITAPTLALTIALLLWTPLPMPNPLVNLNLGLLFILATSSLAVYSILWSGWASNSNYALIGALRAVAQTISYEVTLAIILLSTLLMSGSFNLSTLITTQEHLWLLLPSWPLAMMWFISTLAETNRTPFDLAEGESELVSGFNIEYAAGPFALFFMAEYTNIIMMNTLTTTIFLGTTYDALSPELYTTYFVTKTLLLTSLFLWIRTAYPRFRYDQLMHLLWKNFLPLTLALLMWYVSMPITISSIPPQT
Chain of mitochondrial complex I (O75251 39-213): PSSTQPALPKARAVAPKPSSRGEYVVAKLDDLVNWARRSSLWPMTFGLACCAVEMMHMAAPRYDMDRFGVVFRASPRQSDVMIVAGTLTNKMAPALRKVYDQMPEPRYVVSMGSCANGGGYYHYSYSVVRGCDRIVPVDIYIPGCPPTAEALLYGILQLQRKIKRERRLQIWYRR
Chain of mitochondrial complex I (P03897 whole entry, further chain): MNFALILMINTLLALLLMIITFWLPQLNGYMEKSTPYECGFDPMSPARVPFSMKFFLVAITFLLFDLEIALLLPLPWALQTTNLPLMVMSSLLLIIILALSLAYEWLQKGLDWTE
Chain of mitochondrial complex I (O75306 34-463): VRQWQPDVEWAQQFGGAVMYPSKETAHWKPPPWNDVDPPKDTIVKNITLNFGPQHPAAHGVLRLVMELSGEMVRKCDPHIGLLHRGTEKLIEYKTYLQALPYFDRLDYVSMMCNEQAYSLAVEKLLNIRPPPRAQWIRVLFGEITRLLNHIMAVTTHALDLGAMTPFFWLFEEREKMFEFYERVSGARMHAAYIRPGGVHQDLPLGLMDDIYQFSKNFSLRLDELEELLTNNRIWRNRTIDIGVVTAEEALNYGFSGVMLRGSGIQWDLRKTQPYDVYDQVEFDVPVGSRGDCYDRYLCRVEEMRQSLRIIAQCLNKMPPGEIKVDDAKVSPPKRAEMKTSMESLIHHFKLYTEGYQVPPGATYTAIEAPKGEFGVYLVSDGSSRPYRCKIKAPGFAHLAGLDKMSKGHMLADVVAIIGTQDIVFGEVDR
Chain of mitochondrial complex I (O75489 37-264, further chain): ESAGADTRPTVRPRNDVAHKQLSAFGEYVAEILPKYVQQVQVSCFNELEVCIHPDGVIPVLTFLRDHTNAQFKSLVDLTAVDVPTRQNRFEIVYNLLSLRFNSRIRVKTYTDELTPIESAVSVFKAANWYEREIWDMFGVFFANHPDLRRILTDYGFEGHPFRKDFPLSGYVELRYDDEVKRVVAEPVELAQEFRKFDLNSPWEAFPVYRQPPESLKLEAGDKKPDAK

## CN(C)C(=N)N=C(N)N [Metformin, metformin, reference compound]
MiaPaCa-2 cells [1]
  cellular uptake compared with phenformin: considerably lower than phenformin
MiaPaCa-2 cells [2]; 3 mM, 24 h
  colony formation: Almost no colony formation
MiaPaCa-2 cells [2]; read-out: IC50, colony formation / survival fraction, MiaPaCa-2, 24 h treatment
  IC50: 1300 µM
MCF-10A
  effect on cell confluence: not significantly affected
MiaPaCa-2 cells [3]; OCR measured immediately after addition
  concentration decreasing oxygen consumption: 1 to 10 mM
Mitochondrial complex I
  concentration at which OCR was inhibited: 3,000 μM
HaCaT
  effect on cell confluence: not significantly affected
[4]; 1 mg/kg
  Kidney BUN: 30 ± 7 mg/dL
  Liver ALT: 35 ± 15 IU/L
  Liver AST: 189 ± 117 IU/L
[4]; 150 mg/kg
  Kidney BUN: 22 ± 2 mg/dL
  Liver ALT: 19 ± 3 IU/L
  Liver AST: 127 ± 24 IU/L
MiaPaCa-2 cells [5]
  radiosensitization: increased radiosensitization

## Br.N=C(N)NC(=N)NCC[P+](c1ccccc1)(c1ccccc1)c1ccccc1 [Mito-Met2]
MiaPaCa-2 cells [3]; 24 h treatment, washout
  concentration at which OCR was inhibited: 25 µM

## CC1(C)CC(OCCCCC[P+](c2ccccc2)(c2ccccc2)c2ccccc2)CC(C)(C)N1[O].[Br-] [Mito-Tempol, reference compound]
MiaPaCa-2 cells [6]
  cell death, Sytox Green staining: considerably more cytotoxic

## [H]/N=C(/N)N/C(=N/[H])NCCc1ccccc1 [phenformin, reference compound]
MiaPaCa-2 cells [3]; immediate
  concentration inhibiting OCR to the same extent as Met: ten-fold lower concentration
